{"source": "patent US10059967B2", "about": "“Microorganisms and processes for producing terephthalic acid and its salts” (Genomatica, Inc., priority 2012, dated 2018)", "origin": "cited, not measured here", "data": [{"compound": "Cc1ccc(C(=O)O)cc1", "note": "[p-toluate, 4-methylbenzoate]", "values": [{"measurement": "solubility in aqueous solution (in words)", "value": "Only slightly soluble"}]}]}
